Measured values taken from patent publication US20260287577A1, “APPLICATIONS OF HEPATOCYTE CO-CULTURE SYSTEM” (LifeNet Health, priority 2023, published 2026).

Experiments:
Format in all cases: cell-based, human
hepatic tri-cultures = assay: Cell health (morphology, urea production, LDH release), Example 9; details: TGF-β1 10 ng/ml, exposure up to 120 hr
Description: (§1) Following exposure to methotrexate (MTX; 0.1 and 1 μM; Sigma-Aldrich, St. Louis, MO) or TGF-β1 (0.1 and 10 ng/ml; Miltenyi Biotec, Gaithersburg, MD) or vehicle (DMSO; 0.1% v/v), the expression of various genes known to have a role in fibrogenic responses (e.g., LGALS3, LOX, MMP1) was determined. MTX and TGF-β1 are known fibrogenic compounds Cell health was assessed by urea production and LDH release in the medium.
(§2) The cell harvest and analytical endpoints were done as follows. Phase contrast images were captured each day. The media samples were collected for lactate dehydrogenase (LDH) assay at the end of each treatment period (i.e., 72 or 120 hours of treatment with each compound). The results were used to assess cell health. Cell lysates were harvested for gene expression analysis. 2 wells were combined per sample. The treatment samples were analyzed in triplicate. The following genes that have a role in fibrogenic response were observed. LGALS3 (Galectin3); LOX (lysyl oxidase), MMP1 (matrix Metalloproteinase 1); Housekeeping gene (β-actin). The images in FIGS. 44 and 45 are at 200×.

[1] = system: SMAD-7, LOX, MMP1, LGALS3, UCHL1, HSP90B1, MMP14, PPAR-λ(gamma); assay: Gene expression time course after TGF-β exposure, Example 10; details: 10 ng/ml, no DEX
Description: (§3) A 24-well plate, all-human cell-based triculture system (hTCS) that includes cryopreserved primary human feeder cells (FCs) and primary human hepatocytes (PHHs) and KC were used. The ratios of hepocytes: KC of 1:4 and 1:2 were used. The cells were exposed to TGF-β (10 ng/ml), with NO DEX in the media. During exposure, the above genes were followed. The workflow was the same as described in Example 9.
The cells were exposed to 10 ng/ml TGF-β.
(§4) Exposure times were measured at 2, 6, 24, and 96 hours. The gene expressions SMAD-7, LOX, MMP1, LGALS3, UCHL1, HSP90B1, MMP14, PPAR-λ(gamma)) and two housekeeping genes; β-Actin (duplexed) and GAPDH were measured. Cell Health was evaluated by measuring lactate dehydrogenase (LDH), and urea production at all time points.

hTCS with KC [2] = assay: Urea production, Example 10; details: 10 ng/ml, between 6 and 96 h
Description: as §3, §4

LGALS3 (Galectin3) = assay: cells
Description: (§5) Methods: The hepatic tri-culture system, including adult primary human hepatocytes (PHHs), endothelial cells and stromal cells, was cultured with and without primary KCs, at a ratio of 1 KC:4 PHH or 1 KC:2 PHH, in a glucocorticoid-containing or -free media. […] MTX or TGF-β1 or […] (LPS) cause hepatic injury. The injury leads to lipid accumulation, lipotoxicity and cytokines are produced. These activate the KCs and the liver sinusoidal endothelial cells (LSEC). Then stromal activation and gene expressions occur, leading to liver fibrosis.
as §1
(§6) The experiments were done in a 96-well format according to the details shown below. […] The hepatocytes were from an individual adult lot. The Kupffer cells (KCs) were from an individual adult lot. The seeding density of the Kupffer cells to the hepatocytes was selected to mimic healthy or inflammatory physiological levels (1:4 or 1:2 ratio). The seeding of the KCs occurred on Day 1 of the culture (meaning 24 hours post-hepatocyte plating).
(§7) All hepatocyte plating was performed using TCPM with Dex (1 μM), as above. Four hours after hepatocyte plating, TCCM was added with and without Dex (half of the cultures with Dex, half without.) The media used were those as described above. The medium exchange process was to do 50% media changes following KC plating up until the compound addition.
(§8) Thawing and plating of the hepatocytes was done according to methods as known in the art. The next day (24 hours) after plating the cells, the KCs were added in TCCM with or without Dex (0.1 μM) at a 1:4 or 1:2 ratio to hepatocytes. The next day and subsequent days, 50% volume of medium was changed each day. Starting at day 5 of culture, the compounds tested were added in the 50% medium volume and allowed to go, unchanged, through Day 8 of culture (72 hr treatment); or to 120 hr treatment times. The treatment compounds were methotrexate (0.1 and 1.0 μM) and TGF-β1 (0.1 and 10 ng/ml).
as §2

[3] = system: MMP1 (matrix Metalloproteinase 1); assay: cells
Description: as §5, §1, §6, §7, §8, §2

LOX (lysyl oxidase) = assay: cells
Description: as §5, §1, §6, §7, §8, §2

[4] = system: co-cultured cells at a 1:2 Kupffer cell to hepatocyte ratio; assay: Cell morphology imaging, Example 10; details: 24 hours of exposure
Description: as §3

[5] = system: genes known to have a role in fibrogenic responses (e.g., LGALS3, LOX, MMP1); assay: Fibrogenic response gene expression overall, Example 9
Description: as §5, §1, §6, §7
Thawing and plating of the hepatocytes was done according to methods as known in the art. The next day (24 hours) after plating the cells, the KCs were added in TCCM with or without Dex (0.1 μM) at a 1:4 or 1:2 ratio to hepatocytes. […]
The cell harvest and analytical endpoints were done as follows. […] The treatment samples were analyzed in triplicate. […]

hTCS with KC [6] = assay: LDH cytotoxicity, Example 10; details: 10 ng/ml, presence of Kupffer cells, after 96 hours of exposure
Description: as §3, §4

[7] = 72 hours, with Dex, No KC, TGF-β1 0.1 ng/mL
[8] = 72 hours, with Dex, with KCs, TGF-β1 0.1 ng/mL
[9] = 72 hours, with Dex, with KCs, TGF-β1 10 ng/mL
[10] = 72 hours, without Dex, No KC, TGF-β1 0.1 ng/mL
[11] = 72 hours, without Dex, No KC, TGF-β1 10 ng/mL
[12] = 72 hours, without Dex, with KCs, TGF-β1 0.1 ng/mL
[13] = 72 hours, without Dex, with KCs, TGF-β1 10 ng/mL
[14] = 120 hours, with Dex, No KC, TGF-β1 0.1 ng/mL
[15] = 120 hours, with Dex, No KC, TGF-β1 10 ng/mL
[16] = 120 hours, with Dex, with KCs, TGF-β1 0.1 ng/mL
[17] = 120 hours, with Dex, with KCs, TGF-β1 10 ng/mL
[18] = 120 hours, without Dex, No KC, TGF-β1 0.1 ng/mL
[19] = 120 hours, without Dex, No KC, TGF-β1 10 ng/mL
[20] = 120 hours, without Dex, with KCs, TGF-β1 0.1 ng/mL
[21] = 120 hours, without Dex, with KCs, TGF-β1 10 ng/mL

Substance: TGF-β1: transforming growth factor-β1, pro-fibrogenic cytokine used as fibrogenic reference compound
- cell stress (hepatocellular morphology, urea production, LDH release) (hepatic tri-cultures): exhibited signs of cell stress
- gene expression ([1]; 24 hours of exposure, 1:2 and 1:4 ratios): multiple positive signals for gene expression
- gene expression compared to the controls ([1]; 96 hours exposure, almost all genes, ratios 1:4 and 1:2 Kupffer cells to hepatocytes): reduced gene expression
- urea production rate compared to vehicle alone (hTCS with KC [2]): a decrease in the production rate
- LGALS3 fold induction Mean (LGALS3 (Galectin3); [7]): 1.1 fold
- LGALS3 fold induction Mean (LGALS3 (Galectin3); 72 hours, with Dex, No KC, TGF-β1 10 ng/mL): 0.8 fold
- LGALS3 fold induction Mean (LGALS3 (Galectin3); [8]): 0.9 fold
- LGALS3 fold induction Mean (LGALS3 (Galectin3); [9]): 0.8 fold
- LGALS3 fold induction Mean (LGALS3 (Galectin3); [10]): 1.2 fold
- LGALS3 fold induction Mean (LGALS3 (Galectin3); [11]): 0.5 fold
- LGALS3 fold induction Mean (LGALS3 (Galectin3); [12]): 1.1 fold
- LGALS3 fold induction Mean (LGALS3 (Galectin3); [13]): 0.8 fold
- LGALS3 fold induction Mean (LGALS3 (Galectin3); [14]): 1.0 fold
- LGALS3 fold induction Mean (LGALS3 (Galectin3); [15]): 0.8 fold
- LGALS3 fold induction Mean (LGALS3 (Galectin3); [16]): 0.8 fold
- LGALS3 fold induction Mean (LGALS3 (Galectin3); [17]): 0.8 fold
- LGALS3 fold induction Mean (LGALS3 (Galectin3); [18]): 1.0 fold
- LGALS3 fold induction Mean (LGALS3 (Galectin3); [19]): 0.4 fold
- LGALS3 fold induction Mean (LGALS3 (Galectin3); [20]): 1.1 fold
- LGALS3 fold induction Mean (LGALS3 (Galectin3); [21]): 0.6 fold
- MMP1 fold induction Mean [3, 7]: 0.9 fold
- MMP1 fold induction Mean [3, 8]: 1.0 fold
- MMP1 fold induction Mean [3, 9]: 1.3 fold
- MMP1 fold induction Mean [3, 10]: 1.0 fold
- MMP1 fold induction Mean [3, 11]: 1.2 fold
- MMP1 fold induction Mean [3, 12]: 1.1 fold
- MMP1 fold induction Mean [3, 13]: 1.2 fold
- MMP1 fold induction Mean [3, 14]: 1.2 fold
- MMP1 fold induction Mean [3, 15]: 1.1 fold
- MMP1 fold induction Mean [3, 16]: 1.2 fold
- MMP1 fold induction Mean [3, 17]: 0.1 fold
- MMP1 fold induction Mean [3, 18]: 1.0 fold
- MMP1 fold induction Mean [3, 19]: 1.1 fold
- MMP1 fold induction Mean [3, 20]: 1.1 fold
- MMP1 fold induction Mean [3, 21]: 1.7 fold
- MMP1 gene expression ([3]; TGF-β1 10 ng/ml, presence of KCs): increased MMP1 in a time-dependent manner
- LOX fold induction Mean (LOX (lysyl oxidase); [7]): 1.1 fold
- LOX fold induction Mean (LOX (lysyl oxidase); [8]): 1.0 fold
- LOX fold induction Mean (LOX (lysyl oxidase); [9]): 1.2 fold
- LOX fold induction Mean (LOX (lysyl oxidase); [10]): 1.2 fold
- LOX fold induction Mean (LOX (lysyl oxidase); [11]): 1.3 fold
- LOX fold induction Mean (LOX (lysyl oxidase); [12]): 1.1 fold
- LOX fold induction Mean (LOX (lysyl oxidase); [13]): 1.6 fold
- LOX fold induction Mean (LOX (lysyl oxidase); [14]): 0.9 fold
- LOX fold induction Mean (LOX (lysyl oxidase); [15]): 1.7 fold
- LOX fold induction Mean (LOX (lysyl oxidase); [16]): 1.0 fold
- LOX fold induction Mean (LOX (lysyl oxidase); [17]): 1.6 fold
- LOX fold induction Mean (LOX (lysyl oxidase); [18]): 1.2 fold
- LOX fold induction Mean (LOX (lysyl oxidase); [19]): 2.2 fold
- LOX fold induction Mean (LOX (lysyl oxidase); [20]): 1.2 fold
- LOX fold induction Mean (LOX (lysyl oxidase); [21]): 2.0 fold
- cell appearance [4]: the cells appear healthy
- culture conditions in which effects on fibrogenic genes were observed ([5]; DEX / no DEX, with / without KCs): observed in both DEX and no DEX treated groups, with or without KCs
- gene expression ([5]; TGF-β1 0.1 ng/ml): did not affect gene expression
- cytotoxicity based on LDH production (hTCS with KC [6]): cytotoxicity of the co-cultured cells was low
